Test results published in article PMC9866191, “Novel 9-Benzylaminoacridine Derivatives as Dual Inhibitors of Phosphodiesterase 5 and Topoisomerase II for the Treatment of Colon Cancer” (Molecules, 2023).

What was measured:
Experiment in all cases: NCI-60 one-dose screen
Type in all cases: cell-based
[1] = tested on: 786-0; settings: Homo sapiens; 786-0, Renal Cancer panel; single dose 10^−5 M; read-out: Growth inhibition %
[2] = tested on: A498; settings: Homo sapiens; A498, Renal Cancer panel; single dose 10^−5 M; read-out: Growth inhibition %
[3] = tested on: A549/ATCC; settings: Homo sapiens, Non-small cell lung panel, single dose 10^−5 M, read-out: Growth inhibition %
[4] = tested on: ACHN; settings: Homo sapiens, Renal Cancer panel, single dose 10^−5 M, read-out: Growth inhibition %
[5] = tested on: BT-549; settings: Homo sapiens; BT-549, Breast Cancer panel; single dose 10^−5 M; read-out: Growth inhibition %
[6] = tested on: CAKI-1; settings: Homo sapiens; CAKI-1, Renal Cancer panel; single dose 10^−5 M; read-out: Growth inhibition %
[7] = tested on: COLO 205; settings: Homo sapiens; COLO 205, Colon Cancer panel; single dose 10^−5 M; read-out: Growth inhibition %
[8] = tested on: DU-145; settings: Homo sapiens; DU-145, Prostate Cancer panel; single dose 10^−5 M; read-out: Growth inhibition %
[9] = tested on: HCC-2998; settings: Homo sapiens; HCC-2998, Colon Cancer panel; single dose 10^−5 M; read-out: Growth inhibition %
[10] = tested on: HCT-116; settings: Homo sapiens, read-out: Growth inhibition %
[11] = tested on: HOP-62; settings: Homo sapiens; HOP-62, Non-small cell lung panel; single dose 10^−5 M; read-out: Growth inhibition %
[12] = tested on: K-562; settings: Homo sapiens, K562; K-562, Leukemia panel; single dose 10^−5 M; read-out: Growth inhibition %
[13] = tested on: KM12; settings: Homo sapiens; KM12, Colon Cancer panel; single dose 10^−5 M; read-out: Growth inhibition %
[14] = tested on: MCF7; settings: Homo sapiens; MCF7, Breast Cancer panel; single dose 10^−5 M; read-out: Growth inhibition %
[15] = tested on: MDA-MB-468; settings: Homo sapiens; MDA-MB-468, Breast Cancer panel; single dose 10^−5 M; read-out: Growth inhibition %
[16] = tested on: NCI-H226; settings: Homo sapiens; NCI-H226, Non-small cell lung panel; single dose 10^−5 M; read-out: Growth inhibition %
[17] = tested on: NCI-H522; settings: Homo sapiens; NCI-H522, Non-small cell lung panel; single dose 10^−5 M; read-out: Growth inhibition %
[18] = tested on: NCI/ADR-RES; settings: Homo sapiens, Ovarian Cancer panel, single dose 10^−5 M, read-out: Growth inhibition %
[19] = tested on: PC-3; settings: Homo sapiens; PC-3, Prostate Cancer panel; single dose 10^−5 M; read-out: Growth inhibition %
[20] = tested on: RXF 393; settings: Homo sapiens; RXF 393, Renal Cancer panel; single dose 10^−5 M; read-out: Growth inhibition %
[21] = tested on: SF-295; settings: Homo sapiens; SF-295, CNS Cancer panel; single dose 10^−5 M; read-out: Growth inhibition %
[22] = tested on: SF-539; settings: Homo sapiens; SF-539, CNS Cancer panel; single dose 10^−5 M; read-out: Growth inhibition %
[23] = tested on: SK-MEL-28; settings: Homo sapiens; SK-MEL-28, Melanoma panel; single dose 10^−5 M; read-out: Growth inhibition %
[24] = tested on: SK-MEL-5; settings: Homo sapiens; SK-MEL-5, Melanoma panel; single dose 10^−5 M; read-out: Growth inhibition %
[25] = tested on: SK-OV-3; settings: Homo sapiens; SK-OV-3, Ovarian Cancer panel; single dose 10^−5 M; read-out: Growth inhibition %
[26] = tested on: SN12C; settings: Homo sapiens, Renal Cancer panel, single dose 10^−5 M, read-out: Growth inhibition %
[27] = tested on: SNB-19; settings: Homo sapiens; SNB-19, CNS Cancer panel; single dose 10^−5 M; read-out: Growth inhibition %
[28] = tested on: SR; settings: Homo sapiens, Leukemia panel, single dose 10^−5 M, read-out: Growth inhibition %
[29] = tested on: SW-620; settings: Homo sapiens; SW-620, Colon Cancer panel; single dose 10^−5 M; read-out: Growth inhibition %
[30] = tested on: U251; settings: Homo sapiens, U-251; U251, CNS Cancer panel; single dose 10^−5 M; read-out: Growth inhibition %
[31] = tested on: UACC-62; settings: Homo sapiens; UACC-62, Melanoma panel; single dose 10^−5 M; read-out: Growth inhibition %
[32] = tested on: UO-31; settings: Homo sapiens; UO-31, Renal Cancer panel; single dose 10^−5 M; read-out: Growth inhibition %

COc1cccc(CNc2c3ccccc3nc3ccccc23)c1OC [Compound 16, Acridin-9-yl-(2,3-dimethoxybenzyl)-amine]
inhibition at 10 µM [1]: 61.2%
inhibition at 10 µM [2]: 104%
inhibition at 10 µM [3]: 69.7%
inhibition at 10 µM [4]: 78.9%
inhibition at 10 µM [5]: 40.3%
inhibition at 10 µM [6]: 66.3%
inhibition at 10 µM [7]: 78.5%
inhibition at 10 µM [8]: 58.2%
inhibition at 10 µM [9]: 61.7%
inhibition at 10 µM [10]: 88.2%
inhibition at 10 µM [11]: 48.8%
inhibition at 10 µM [12]: 84.5%
inhibition at 10 µM [13]: 47.6%
inhibition at 10 µM [14]: 89.9%
inhibition at 10 µM [15]: 98.9%
inhibition at 10 µM [16]: 48.4%
inhibition at 10 µM [17]: 59.9%
inhibition at 10 µM [18]: 66.8%
inhibition at 10 µM [19]: 62.4%
inhibition at 10 µM [20]: 70.1%
inhibition at 10 µM [21]: 67%
inhibition at 10 µM [22]: 81.1%
inhibition at 10 µM [23]: 33.9%
inhibition at 10 µM [24]: 44.2%
inhibition at 10 µM [25]: 34%
inhibition at 10 µM [26]: 69.1%
inhibition at 10 µM [27]: 64.5%
inhibition at 10 µM [28]: 82.5%
inhibition at 10 µM [29]: 74.6%
inhibition at 10 µM [30]: 65.5%
inhibition at 10 µM [31]: 48.7%
inhibition at 10 µM [32]: 74.8%

Fc1ccccc1CNc1c2ccccc2nc2ccccc12 [Compound 8, Acridin-9-yl-(2-fluorobenzyl)-amine]
inhibition at 10 µM [1]: 60%
inhibition at 10 µM [2]: 89.1%
inhibition at 10 µM [3]: 65.9%
inhibition at 10 µM [4]: 76.9%
inhibition at 10 µM [5]: 15.1%
inhibition at 10 µM [6]: 64.2%
inhibition at 10 µM [7]: 84.9%
inhibition at 10 µM [8]: 38.1%
inhibition at 10 µM [9]: 52%
inhibition at 10 µM [10]: 86.1%
inhibition at 10 µM [11]: 47.5%
inhibition at 10 µM [12]: 85.8%
inhibition at 10 µM [13]: 57.8%
inhibition at 10 µM [14]: 83.8%
inhibition at 10 µM [15]: 78.2%
inhibition at 10 µM [16]: 43.6%
inhibition at 10 µM [17]: 34.2%
inhibition at 10 µM [18]: 62%
inhibition at 10 µM [19]: 52.9%
inhibition at 10 µM [20]: 51.2%
inhibition at 10 µM [21]: 48.2%
inhibition at 10 µM [22]: 68.9%
inhibition at 10 µM [23]: 15.9%
inhibition at 10 µM [24]: 39.3%
inhibition at 10 µM [25]: 49.1%
inhibition at 10 µM [26]: 60.4%
inhibition at 10 µM [27]: 56.1%
inhibition at 10 µM [28]: 82%
inhibition at 10 µM [29]: 71.5%
inhibition at 10 µM [30]: 53.1%
inhibition at 10 µM [31]: 38.4%
inhibition at 10 µM [32]: 72.3%

Fc1cccc(CNc2c3ccccc3nc3ccccc23)c1 [Compound 9, Acridin-9-yl-(3-fluorobenzyl)-amine]
inhibition at 10 µM [1]: 63.5%
inhibition at 10 µM [2]: 113%
inhibition at 10 µM [3]: 70.8%
inhibition at 10 µM [4]: 82.9%
inhibition at 10 µM [5]: 22.9%
inhibition at 10 µM [6]: 73%
inhibition at 10 µM [7]: 82.7%
inhibition at 10 µM [8]: 58.3%
inhibition at 10 µM [9]: 70.1%
inhibition at 10 µM [10]: 86.6%
inhibition at 10 µM [11]: 52.1%
inhibition at 10 µM [12]: 84.3%
inhibition at 10 µM [13]: 51.4%
inhibition at 10 µM [14]: 92.1%
inhibition at 10 µM [15]: 99.4%
inhibition at 10 µM [16]: 49.4%
inhibition at 10 µM [17]: 62.2%
inhibition at 10 µM [18]: 69.9%
inhibition at 10 µM [19]: 51%
inhibition at 10 µM [20]: 67.2%
inhibition at 10 µM [21]: 74.8%
inhibition at 10 µM [22]: 73.1%
inhibition at 10 µM [23]: 21.5%
inhibition at 10 µM [24]: 39.5%
inhibition at 10 µM [25]: 48.9%
inhibition at 10 µM [26]: 67.2%
inhibition at 10 µM [27]: 64.1%
inhibition at 10 µM [28]: 80.9%
inhibition at 10 µM [29]: 78%
inhibition at 10 µM [30]: 64.8%
inhibition at 10 µM [31]: 49.7%
inhibition at 10 µM [32]: 76%

Cc1ccc(CNc2c3ccccc3nc3ccccc23)cc1 [Compound 4, Acridin-9-yl-(4-methylbenzyl)-amine]
inhibition at 10 µM [1]: 74.6%
inhibition at 10 µM [2]: 92.4%
inhibition at 10 µM [3]: 74%
inhibition at 10 µM [4]: 86%
inhibition at 10 µM [5]: 28.7%
inhibition at 10 µM [6]: 81.4%
inhibition at 10 µM [7]: 99.7%
inhibition at 10 µM [8]: 66.5%
inhibition at 10 µM [9]: 103%
inhibition at 10 µM [10]: 88%
inhibition at 10 µM [11]: 56.4%
inhibition at 10 µM [12]: 97%
inhibition at 10 µM [13]: 76.5%
inhibition at 10 µM [14]: 91%
inhibition at 10 µM [15]: 92.8%
inhibition at 10 µM [16]: 58.5%
inhibition at 10 µM [17]: 51%
inhibition at 10 µM [18]: 73.9%
inhibition at 10 µM [19]: 75.7%
inhibition at 10 µM [20]: 89.7%
inhibition at 10 µM [21]: 68.7%
inhibition at 10 µM [22]: 81.9%
inhibition at 10 µM [23]: 40.5%
inhibition at 10 µM [24]: 69.9%
inhibition at 10 µM [25]: 53.1%
inhibition at 10 µM [26]: 75.1%
inhibition at 10 µM [27]: 70.3%
inhibition at 10 µM [28]: 101%
inhibition at 10 µM [29]: 79.8%
inhibition at 10 µM [30]: 74%
inhibition at 10 µM [31]: 56.6%
inhibition at 10 µM [32]: 88%

Fc1cccc(CNc2c3ccccc3nc3ccccc23)c1F [Compound 20, Acridin-9-yl-(2,3-difluorobenzyl)-amine]
inhibition at 10 µM [1]: 34.6%
inhibition at 10 µM [2]: 101%
inhibition at 10 µM [3]: 43.3%
inhibition at 10 µM [4]: 69.4%
inhibition at 10 µM [5]: 9.44%
inhibition at 10 µM [6]: 54.3%
inhibition at 10 µM [7]: 59.1%
inhibition at 10 µM [8]: 23.3%
inhibition at 10 µM [9]: 41.6%
inhibition at 10 µM [10]: 82.5%
inhibition at 10 µM [11]: 27.3%
inhibition at 10 µM [12]: 56.6%
inhibition at 10 µM [13]: 13.1%
inhibition at 10 µM [14]: 70.2%
inhibition at 10 µM [15]: 78%
inhibition at 10 µM [16]: 27.1%
inhibition at 10 µM [17]: 46.1%
inhibition at 10 µM [18]: 51.5%
inhibition at 10 µM [19]: 42.9%
inhibition at 10 µM [20]: 40.5%
inhibition at 10 µM [21]: 46.2%
inhibition at 10 µM [22]: 44.5%
inhibition at 10 µM [23]: 3.12%
inhibition at 10 µM [24]: 17%
inhibition at 10 µM [25]: 24.1%
inhibition at 10 µM [26]: 51%
inhibition at 10 µM [27]: 41.5%
inhibition at 10 µM [28]: 61.8%
inhibition at 10 µM [29]: 58.6%
inhibition at 10 µM [30]: 34.5%
inhibition at 10 µM [31]: 24.3%
inhibition at 10 µM [32]: 60%
